Converted amounts (≈) assume the structure as drawn.
Columns and labels:
Pichia kudriavzevii = test: Antifungal activity against Candida krusei GIM2.1 assessed as fungal growth inhibition by CLSI protocol based method; type: functional
Cryptococcus neoformans = test: Antifungal activity against Cryptococcus neoformans CGMCC2.3161 assessed as fungal growth inhibition by CLSI protocol based method; type: functional
Candida albicans [1] = test: Antifungal activity against Candida albicans ATCC SC5314 assessed as fungal growth inhibition by CLSI protocol based method; type: functional
Candida albicans [2] = test: Antifungal activity against Candida albicans CPCC400616 assessed as fungal growth inhibition by CLSI protocol based method; type: functional
Candida tropicalis = test: Antifungal activity against Candida tropicalis CGMCC 2.3739 assessed as fungal growth inhibition by CLSI protocol based method; type: functional
Candida parapsilosis = test: Antifungal activity against Candida parapsilosis GIM2.190 assessed as fungal growth inhibition by CLSI protocol based method; type: functional; settings: Lodderomyces parapsilosis
Nakaseomyces glabratus = test: Antifungal activity against Candida glabrata assessed as fungal growth inhibition by CLSI protocol based method; type: functional
Candida albicans [3] = test: Antifungal activity against fluconazole-resistant Candida albicans 904 assessed as fungal growth inhibition by CLSI protocol based method
Candida albicans [4] = test: Antifungal activity against fluconazole-resistant Candida albicans 103 assessed as fungal growth inhibition by CLSI protocol based method
Candida albicans [5] = test: Antifungal activity against fluconazole-resistant Candida albicans 632 assessed as fungal growth inhibition by CLSI protocol based method
Candida albicans [6] = test: Antifungal activity against fluconazole-resistant Candida albicans 311 assessed as fungal growth inhibition by CLSI protocol based method
Candida albicans [7] = test: Antifungal activity against fluconazole-resistant Candida albicans 100 assessed as fungal growth inhibition by CLSI protocol based method
Candida albicans [8] = test: Antifungal activity against fluconazole-resistant Candida albicans 901 assessed as fungal growth inhibition by CLSI protocol based method

| Compound | MIC (Pichia kudriavzevii) [µg/mL] | MIC (Cryptococcus neoformans) [µg/mL] | MIC (Candida albicans [1]) [µg/mL] | MIC (Candida albicans [2]) [µg/mL] | MIC (Candida tropicalis) [µg/mL] | MIC (Candida parapsilosis) [µg/mL] | MIC (Nakaseomyces glabratus) [µg/mL] | MIC (Candida albicans [3]) [µg/mL] | MIC (Candida albicans [4]) [µg/mL] | MIC (Candida albicans [5]) [µg/mL] | MIC (Candida albicans [6]) [µg/mL] | MIC (Candida albicans [7]) [µg/mL] | MIC (Candida albicans [8]) [µg/mL] |
| --- | --- | --- | --- | --- | --- | --- | --- | --- | --- | --- | --- | --- | --- |
| O=C(NC(Cn1ccnc1)C(=O)c1ccccc1)c1nc2ccc(Br)cc2s1 (stereo unspecified) | > 64 | > 64 | 32 (≈ 70.3 µM) | > 64 | > 64 | > 64 | > 64 |  |  |  |  |  |  |
| O=C(NC(Cn1ccnc1)C(=O)c1ccc(F)cc1F)c1ccc(-c2ccc(Cl)cc2)s1 (stereo unspecified) | > 64 | 2 (≈ 4.24 µM) | 0.5 (≈ 1.06 µM) | > 64 | > 64 | > 64 | > 64 |  |  |  |  |  |  |
| O=C(NC(Cn1ccnc1)C(=O)c1ccccc1)c1ccc(N2CCN(c3ccccc3)CC2)cc1 (stereo unspecified) | > 64 | > 64 | > 64 | > 64 | > 64 | > 64 | > 64 |  |  |  |  |  |  |
| COc1ccc(-c2ccc(C(=O)NC(Cn3ccnc3)C(=O)c3ccccc3)s2)cc1 (stereo unspecified) | > 64 | > 64 | 0.125 (≈ 0.29 µM) | 1 (≈ 2.32 µM) | 2 (≈ 4.63 µM) | > 64 | > 64 | 4 (≈ 9.27 µM) | 4 (≈ 9.27 µM) | 8 (≈ 18.5 µM) | 4 (≈ 9.27 µM) | 2 (≈ 4.63 µM) | 2 (≈ 4.63 µM) |
| O=C(NC(Cn1ccnc1)C(=O)c1ccc(F)cc1)c1ccc(-c2ccc(Cl)cc2)s1 (stereo unspecified) | > 64 | > 64 | 0.06 (≈ 0.132 µM) | 0.25 (≈ 0.551 µM) | 2 (≈ 4.41 µM) | > 64 | 1 (≈ 2.2 µM) | 16 (≈ 35.2 µM) | 8 (≈ 17.6 µM) | 4 (≈ 8.81 µM) | 4 (≈ 8.81 µM) | 4 (≈ 8.81 µM) | 8 (≈ 17.6 µM) |
| Cc1ccc(-c2ccc(C(=O)NC(Cn3ccnc3)C(=O)c3ccccc3)s2)cc1 (stereo unspecified) | > 64 | > 64 | 0.125 (≈ 0.301 µM) | 1 (≈ 2.41 µM) | 2 (≈ 4.81 µM) | 8 (≈ 19.3 µM) | > 64 |  |  |  |  |  |  |
| O=C(NC(Cn1ccnc1)C(=O)c1ccccc1)c1ccc(-c2ccccc2)s1 (stereo unspecified) | 32 (≈ 79.7 µM) | 8 (≈ 19.9 µM) | 0.5 (≈ 1.25 µM) | 0.5 (≈ 1.25 µM) | 1 (≈ 2.49 µM) | 0.5 (≈ 1.25 µM) | 2 (≈ 4.98 µM) | 4 (≈ 9.96 µM) | 4 (≈ 9.96 µM) | 8 (≈ 19.9 µM) | 8 (≈ 19.9 µM) | 4 (≈ 9.96 µM) | 4 (≈ 9.96 µM) |
| O=C(NC(Cn1ccnc1)C(=O)c1ccccc1)c1ccc(-c2ccc(F)cc2)s1 (stereo unspecified) | > 64 | > 64 | 1 (≈ 2.38 µM) | 32 (≈ 76.3 µM) | 32 (≈ 76.3 µM) | > 64 | > 64 |  |  |  |  |  |  |
| O=C(NC(Cn1ccnc1)C(=O)c1ccccc1)c1ccc(-c2ccc(Cl)cc2)s1 (stereo unspecified) | 4 (≈ 9.18 µM) | > 64 | 0.125 (≈ 0.287 µM) | 0.125 (≈ 0.287 µM) | 0.125 (≈ 0.287 µM) | 0.25 (≈ 0.573 µM) | 1 (≈ 2.29 µM) | 4 (≈ 9.18 µM) | 4 (≈ 9.18 µM) | 4 (≈ 9.18 µM) | 2 (≈ 4.59 µM) | 2 (≈ 4.59 µM) | 4 (≈ 9.18 µM) |
| O=C(NC(Cn1ccnc1)C(=O)c1ccccc1)c1cc2ccccc2o1 (stereo unspecified) | > 64 | > 64 | > 64 | > 64 | > 64 | > 64 | > 64 |  |  |  |  |  |  |
| O=C(NC(Cn1ccnc1)C(=O)c1ccccc1F)c1ccc(-c2ccc(Cl)cc2)s1 (stereo unspecified) | 1 (≈ 2.2 µM) | 2 (≈ 4.41 µM) | 0.06 (≈ 0.132 µM) | 0.06 (≈ 0.132 µM) | > 64 | > 64 | > 64 | > 64 | 4 (≈ 8.81 µM) | > 64 | 8 (≈ 17.6 µM) | > 64 | 2 (≈ 4.41 µM) |
| O=C(NC(Cn1ccnc1)C(=O)c1ccccc1)c1ccc(-c2ccc(C(F)(F)F)cc2)s1 (stereo unspecified) | 16 (≈ 34.1 µM) | > 64 | 0.125 (≈ 0.266 µM) | 2 (≈ 4.26 µM) | 0.125 (≈ 0.266 µM) | 4 (≈ 8.52 µM) | 8 (≈ 17 µM) | 2 (≈ 4.26 µM) | 2 (≈ 4.26 µM) | > 64 | 4 (≈ 8.52 µM) | > 64 | 4 (≈ 8.52 µM) |
| O=C(NC(Cn1ccnc1)C(=O)c1ccccc1)c1ccc(-c2ccc(OC(F)(F)F)cc2)s1 (stereo unspecified) | > 64 | > 64 | 0.5 (≈ 1.03 µM) | 16 (≈ 33 µM) | 32 (≈ 65.9 µM) | > 64 | > 64 |  |  |  |  |  |  |
| O=C(NC(Cn1ccnc1)C(=O)c1ccccc1)c1noc2c1CCc1ccccc1-2 (stereo unspecified) | > 64 | 16 (≈ 38.8 µM) | 8 (≈ 19.4 µM) | 8 (≈ 19.4 µM) | 4 (≈ 9.7 µM) | 32 (≈ 77.6 µM) | 16 (≈ 38.8 µM) |  |  |  |  |  |  |
| O=C(NC(Cn1ccnc1)C(=O)c1ccccc1)c1ccc(-c2ccc(Cl)cc2Cl)s1 (stereo unspecified) | > 64 | > 64 | > 64 | > 64 | > 64 | > 64 | > 64 |  |  |  |  |  |  |

Reference: ChEMBL document CHEMBL4828738, “Design, synthesis and evaluation of novel 5-phenylthiophene derivatives as potent fungicidal of Candida albicans and antifungal reagents of fluconazole-resistant fungi” (Eur J Med Chem, 2021)
